Measurements published in patent US10738009B2, “Pyridone amides as modulators of sodium channels” (VERTEX PHARMACEUTICALS INCORPORATED, priority 2013, dated 2020).

Experiments:
[1] = Microsomal stability assay, human liver microsomes (HLM); type: in vitro ADME; conditions: human liver microsomes 0.5 mg/mL, 1 uM substrate, 2 mM NADPH, 37° C., vs time zero control
Protocol: (§1) Microsomal Stability Assay. Compounds were incubated at 37° C. and shaken for 30 minutes in a phosphate buffered solution with either rat or human liver microsomes and the cofactor NADPH. A time zero control was similarly prepared, however with NADPH excluded. The final incubation concentrations were 1 uM substrate (0.2% DMSO), 0.5 mg/mL liver microsome, 2 mM NADPH, and 0.1 M phosphate. Reactions were quenched and proteins precipitated with the addition of 2 volume equivalents of ice cold acetonitrile containing an internal standard. Following a centrifugation step, aliquots from the quenched incubations were further diluted with 4 volume equivalents of a 50% aqueous methanol solution and then subjected to LC/MS/MS analysis for quantitation of parent compound. Microsome stability values were calculated as the percent of substrate remaining after 30 minutes referenced against the time zero control.
(§2) Microsomal stability in rat and human liver microsomes were determined for selected compounds of the present invention using the above assay. Table 4 provides the human liver microsomes (“HLM”) and rat liver microsomes (“RLM”) stability data as the percent of compound remaining after 30 minutes referenced against the time zero control.

[2] = Microsomal stability assay, rat liver microsomes (RLM); type: in vitro ADME; conditions: rat liver microsomes 0.5 mg/mL, 1 uM substrate, 2 mM NADPH, 37° C., vs time zero control
Protocol: as §1, §2

| Structure (SMILES) | HLM (% remaining @ 30 minutes) [1] [%] | RLM (% remaining @ 30 minutes) [2] [%] |
| --- | --- | --- |
| COCCOc1ccc(Oc2cc(C(F)(F)F)ccc2C(=O)Nc2cc[nH]c(=O)c2)cc1 [Compound 8, 2-(4-(2-methoxyethoxy)phenoxy)-N-(2-oxo-1,2-dihydropyridin-4-yl)-4-(trifluoromethyl)benzamide] | 90 | 86 |
| O=C(Nc1cc[nH]c(=O)c1)c1ccc(C(F)(F)F)cc1Oc1ccc(F)cc1F [Compound 7, 2-(2,4-difluorophenoxy)-N-(2-oxo-1,2-dihydropyridin-4-yl)-4-(trifluoromethyl)benzamide] | 97 | 99 |
| COc1ccc(Oc2cc(Cl)c(Cl)cc2C(=O)Nc2cc[nH]c(=O)c2)cc1F [Compound 115, 4,5-dichloro-2-(3-fluoro-4-methoxyphenoxy)-N-(2-oxo-1,2-dihydropyridin-4-yl)benzamide] |  | 95 |
| Cc1cc(F)ccc1Oc1ccc(C(F)(F)F)cc1C(=O)Nc1cc[nH]c(=O)c1 [Compound 31, 2-(4-fluoro-2-methylphenoxy)-N-(2-oxo-1,2-dihydropyridin-4-yl)-5-(trifluoromethyl)benzamide] | 92 | 91 |
| COc1cc(F)ccc1Oc1cc(Cl)c(Cl)cc1C(=O)Nc1cc[nH]c(=O)c1 [Compound 114, 4,5-dichloro-2-(4-fluoro-2-methoxyphenoxy)-N-(2-oxo-1,2-dihydropyridin-4-yl)benzamide] | 91 | 82 |
| O=C(Nc1cc[nH]c(=O)c1)c1cc(C(F)(F)F)ccc1Oc1ccc(F)cc1 [Compound 2, 2-(4-fluorophenoxy)-N-(2-oxo-1,2-dihydropyridin-4-yl)-5-(trifluoromethyl)benzamide] | 100 |  |
| O=C(Nc1cc[nH]c(=O)c1)c1ccc(C(F)(F)F)cc1Oc1ccc(OC(F)(F)F)cc1 [Compound 79, N-(2-oxo-1,2-dihydropyridin-4-yl)-2-(4-(trifluoromethoxy)phenoxy)-4-(trifluoromethyl)benzamide] |  | 100 |
| Cc1ccccc1Oc1ccc(C(F)(F)F)cc1C(=O)Nc1cc[nH]c(=O)c1 [Compound 28, N-(2-oxo-1,2-dihydropyridin-4-yl)-2-(o-tolyloxy)-5-(trifluoromethyl)benzamide] | 79 | 70 |
| CC(C)(C)c1ccc(C(=O)Nc2ccc(=O)[nH]c2)c(Oc2ccc(C(F)(F)F)nc2)c1 [Compound 142, 4-(tert-butyl)-N-(6-oxo-1,6-dihydropyridin-3-yl)-2-((6-(trifluoromethyl)pyridin-3-yl)oxy)benzamide] | 38 | 50 |
| O=C(Nc1cc[nH]c(=O)c1)c1ccc(C(F)(F)F)cc1OCCCC(F)(F)F [Compound 123, N-(2-oxo-1,2-dihydropyridin-4-yl)-2-(4,4,4-trifluorobutoxy)-4-(trifluoromethyl)benzamide] |  | 98 |
| O=C(Nc1cc[nH]c(=O)c1)c1ccc(C(F)(F)C(F)(F)F)cc1Oc1ccc(F)cc1 [Compound 88, 2-(4-fluorophenoxy)-N-(2-oxo-1,2-dihydropyridin-4-yl)-4-(perfluoroethyl)benzamide] | 100 |  |
| O=C(Nc1cc[nH]c(=O)c1)c1cc(OC(F)(F)F)ccc1Oc1ccc(F)cc1F [Compound 33, 2-(2,4-difluorophenoxy)-N-(2-oxo-1,2-dihydropyridin-4-yl)-5-(trifluoromethoxy)benzamide] | 100 | 110 |
| Cc1cc(F)ccc1Oc1ccc(Cl)cc1C(=O)Nc1cc[nH]c(=O)c1 [Compound 68, 5-chloro-2-(4-fluoro-2-methylphenoxy)-N-(2-oxo-1,2-dihydropyridin-4-yl)benzamide] | 98 | 72 |
| O=C(Nc1cc[nH]c(=O)c1)c1cc(Cl)ccc1Oc1ccc(F)cc1Cl [Compound 66, 5-chloro-2-(2-chloro-4-fluorophenoxy)-N-(2-oxo-1,2-dihydropyridin-4-yl)benzamide] | 100 |  |
| Cc1cc(F)ccc1Oc1cc(C(F)(F)F)ccc1C(=O)Nc1cc[nH]c(=O)c1 [Compound 10, 2-(4-fluoro-2-methylphenoxy)-N-(2-oxo-1,2-dihydropyridin-4-yl)-4-(trifluoromethyl)benzamide] | 93 | 82 |
| O=C(Nc1cc[nH]c(=O)c1)c1cc(C(F)(F)F)ccc1Oc1ccccc1OC(F)F [Compound 76, 2-(2-(difluoromethoxy)phenoxy)-N-(2-oxo-1,2-dihydropyridin-4-yl)-5-(trifluoromethyl)benzamide] | 97 | 93 |
| COc1cc(F)ccc1Oc1cc(C(F)(F)C(F)(F)F)ccc1C(=O)Nc1cc[nH]c(=O)c1 [Compound 111, 2-(4-fluoro-2-methoxyphenoxy)-N-(2-oxo-1,2-dihydropyridin-4-yl)-4-(perfluoroethyl)benzamide] | 91 | 90 |
| O=C(Nc1cc[nH]c(=O)c1)c1cc(C(F)(F)F)ccc1Oc1ccc(OC(F)(F)F)cc1 [Compound 72, N-(2-oxo-1,2-dihydropyridin-4-yl)-2-(4-(trifluoromethoxy)phenoxy)-5-(trifluoromethyl)benzamide] | 100 |  |
| O=C(Nc1cc[nH]c(=O)c1)c1ccc(C(F)(F)F)cc1Oc1ccc(OC(F)F)cc1 [Compound 82, 2-(4-(difluoromethoxy)phenoxy)-N-(2-oxo-1,2-dihydropyridin-4-yl)-4-(trifluoromethyl)benzamide] |  | 98 |
| O=C(Nc1cc[nH]c(=O)c1)c1ccc(C(F)(F)F)cc1OCC1CCCC1 [Compound 120, 2-(cyclopentylmethoxy)-N-(2-oxo-1,2-dihydropyridin-4-yl)-4-(trifluoromethyl)benzamide] | 87 | 79 |
| O=C(Nc1cc[nH]c(=O)c1)c1cc(OC(F)(F)F)ccc1Oc1ccc(F)cc1Cl [Compound 37, 2-(2-chloro-4-fluorophenoxy)-N-(2-oxo-1,2-dihydropyridin-4-yl)-5-(trifluoromethoxy)benzamide] | 100 | 97 |
| O=C(Nc1cc[nH]c(=O)c1)c1cc(F)ccc1Oc1ccc(OC(F)(F)F)cc1 [Compound 101, 5-fluoro-N-(2-oxo-1,2-dihydropyridin-4-yl)-2-(4-(trifluoromethoxy)phenoxy)benzamide] | 97 | 89 |
| COc1cc(F)ccc1Oc1ccc(C(F)(F)F)cc1C(=O)Nc1cc[nH]c(=O)c1 [Compound 30, 2-(4-fluoro-2-methoxyphenoxy)-N-(2-oxo-1,2-dihydropyridin-4-yl)-5-(trifluoromethyl)benzamide] | 76 | 78 |
| O=C(Nc1cc[nH]c(=O)c1)c1c(Oc2ccc(F)cc2F)cc(C(F)(F)F)cc1C(F)(F)F [Compound 152, 2-(2,4-difluorophenoxy)-N-(2-oxo-1,2-dihydropyridin-4-yl)-4,6-bis(trifluoromethyl)benzamide] |  | 100 |
| O=C(Nc1cc[nH]c(=O)c1)c1cc(C(F)(F)F)ccc1Oc1ccccc1OC(F)(F)F [Compound 75, N-(2-oxo-1,2-dihydropyridin-4-yl)-2-(2-(trifluoromethoxy)phenoxy)-5-(trifluoromethyl)benzamide] | 90 | 95 |
| Cc1cc(F)ccc1Oc1cc(Cl)ccc1C(=O)Nc1cc[nH]c(=O)c1 [Compound 20, 4-chloro-2-(4-fluoro-2-methylphenoxy)-N-(2-oxo-1,2-dihydropyridin-4-yl)benzamide] |  | 88 |
| O=C(Nc1cc[nH]c(=O)c1)c1cc(F)c(Cl)cc1Oc1ccc(F)cc1Cl [Compound 109, 4-chloro-2-(2-chloro-4-fluorophenoxy)-5-fluoro-N-(2-oxo-1,2-dihydropyridin-4-yl)benzamide] |  | 100 |
| CCOc1ccc(Oc2ccc(C(F)(F)F)cc2C(=O)Nc2cc[nH]c(=O)c2)cc1 [Compound 44, 2-(4-ethoxyphenoxy)-N-(2-oxo-1,2-dihydropyridin-4-yl)-5-(trifluoromethyl)benzamide] | 93 | 84 |
